Data: patent publication US11590233B2, “Porphyrin compounds and compositions useful for treating cancer” (OncoSelect Therapeutics, LLC, priority 2016, dated 2023)

How the values were obtained:
HCC15, H157 and H358 = assay: TCPP uptake in cancer cell lines under sucrose or cold temperature (FIG. 2); type: cell-based, human
From the text: (§1) Porphyrin tetrakis(4-carboxyphenyl)porphyrin (TCPP) uptake by a panel of human lung cancer cell lines including, HCC15, H157, and H358 were examined using flow cytometry in under varying conditions to manipulate clathrin-dependent and independent endocytosis by chemical inhibitors. […] It has been speculated that preferential porphyrin uptake by cancer cells as compared to non-cancer cells is facilitated by the increased number of LDL receptor (LDLR) on the surface of cancer cells.

lung cancer cells = assay: TCPP uptake in lung cancer cells manipulated to express no LDLR; type: cell-based, human; settings: lung cancer cells expressing no LDLR
From the text: (§2) Porphyrin tetrakis(4-carboxyphenyl)porphyrin (TCPP) uptake by a panel of human lung cancer cell lines including, HCC15, H157, and H358 were examined using flow cytometry in under varying conditions to manipulate clathrin-dependent and independent endocytosis by chemical inhibitors. Referring now to FIG. 1, TCPP uptake in cancer cells (HCC15) as compared to bone marrow cells in a dose dependent manner is illustrated. Similar results are observed with mouse normal lung cells as is shown for bone marrow cells. The uptake of TCPP by HCC15 is greater than 2-fold at 10 ug/ml as compared to the non-cancer cells. […] Chlorpromazine, an antagonist of clathrin-mediated endocytosis, inhibited TCPP uptake in a cancer cell line by up to 80% as is illustrated in FIG. 3. In contrast, the clathrin-independent endocytosis inhibitor filipin had no effect on TCPP uptake. It has been speculated that preferential porphyrin uptake by cancer cells as compared to non-cancer cells is facilitated by the increased number of LDL receptor (LDLR) on the surface of cancer cells. To examine LDLR contribution on TCPP uptake, lung cancer cells were manipulated to express no LDLR, which reduced TCPP uptake by only 20%.

[1] = system: human fibroblasts without functional LDLR; assay: TCPP uptake in human fibroblasts without functional LDLR; type: cell-based
HCC15 = assay: TCPP uptake in cancer cells vs non-cancer cells by flow cytometry; type: cell-based, human; settings: 10 ug/ml, HCC15 vs bone marrow cells
From the text: as §2

a cancer cell line = assay: TCPP uptake by a cancer cell treated with different inhibitors of endocytosis (FIG. 3); type: cell-based, human
From the text: as §1

## O=C(O)c1ccc(-c2c3nc(c(-c4ccc(C(=O)O)cc4)c4ccc([nH]4)c(-c4ccc(C(=O)O)cc4)c4nc(c(-c5ccc(C(=O)O)cc5)c5ccc2[nH]5)C=C4)C=C3)cc1 [TCPP, tetrakis(4-carboxyphenyl)porphyrin]
HCC15, H157 and H358; cold temperature
  inhibition of TCPP uptake by cold temperature: nearly completely inhibited
Lung cancer cells
  reduction of TCPP uptake: 20%
[1]
  inhibition of TCPP uptake: no inhibition
HCC15
  uptake of TCPP by HCC15 as compared to the non-cancer cells: greater than 2 fold

## OC[C@H]1O[C@@](CO)(O[C@H]2O[C@H](CO)[C@@H](O)[C@H](O)[C@H]2O)[C@@H](O)[C@@H]1O [sucrose]
HCC15, H157 and H358; flow cytometry
  inhibition of TCPP uptake by sucrose: moderately inhibited

## CCCCC[C@@H](O)[C@H]1C(=O)O[C@H](C)[C@@H](O)/C=C/C=C/C=C/C=C/C=C(\C)[C@@H](O)C[C@H](O)C[C@H](O)C[C@H](O)C[C@H](O)C[C@H](O)C[C@@H]1O [filipin]
A cancer cell line; clathrin-independent endocytosis inhibitor
  effect on TCPP uptake: no effect

## CN(C)CCCN1c2ccccc2Sc2ccc(Cl)cc21 [Chlorpromazine]
A cancer cell line; antagonist of clathrin-mediated endocytosis, a cancer cell line
  inhibition of TCPP uptake: up to 80%
